Patent US6531453B1, “NKT cell activators containing α-glycosylceramides” (Kirin Beera Kabushiki Kaisha, priority 1997, dated 2003)

Columns and labels:
[1] = test system: mouse lymphoma YAC-1 cells; test: Cytotoxic activity of spleen NKT cells against tumor cells (4 hour 51Cr-release) after i.v. administration to RAG-1KO/Vα14tg/Vβ8.2tg mice; type: in vivo; settings: 100 μg/kg i.v., spleen taken 24 hours later, FIG. 1
Procedure: A vehicle (physiological saline containing 0.025% Polysolvate 20) or 100 μg/kg of KRN 7000 was intravenously administered to RAG-1KO/Vα14tg/Vβ8.2tg mice (bearing a large number of NKT cells but not B cells, T cells or NK cells in their lymphocyte fraction), and 24 hours later, the spleen was taken out from each mouse to prepare spleen cells by conventional methods. RAG-1KO/Vαl14tg/Vβ8.2tg mice were established by deletion of the RAG-1 gene and forcible expression of Vα14 and Vβ8.2 gene (Kawano T. et al., Science, 278, 1626-1629 (1997)). Thesemice are available from Masaru Taniguchi, School of Medicine, Chiba University. Cytotoxic activity of these spleen cells to mouse lymphoma YAC-1 cells was studied by the 4 hour-^51Cr-release method (Kobayashi, E. et al., Oncology Res., 7, 529 ([…])).

MRL lpr/lpr mice = test: Suppression of lymph node swelling in MRL lpr/lpr mice; type: in vivo, mouse; settings: 100 μg/kg i.p. twice a week from the age of 11 weeks
Procedure: Ten animals per group of female MRL lpr/lpr mice (Sakamoto, A. Clin. Immunol., 28, 1558 (1966)), were used for the following experiment. During the observation of 21 MRL mice purchased at the age of 6 weeks, swelling of the axillary lymph nodes was recognized in one mouse at the age of 10 weeks. Accordingly, the other 20 mice were randomly divided into 2 groups. A vehicle (a physiological saline solution containing 0.025% Polysolvate 20) or KRN 7000 (100 μg/kg) was intraperitoneally administered twice a week (on Tuesday and Friday) to the abovementioned 2 groups of animals starting from the age of 11 weeks. Axillary and inguinal lymph nodes were examined twice a week to observe the progress of lymph node swelling with time. The lymph nodes were scored into 4 grades, i.e., −(0), +(1), ++(2) and +++(3) as a function of size. The total scores of both right and left sides of the axillary lymph node (A) or inguinal lymph node (B) were expressed as lymph node swelling indexes as shown in FIG. 3.

[2] = test system: 4% DSS-induced mouse colitis (CDF1 mice); test: Suppression of 4% DSS-induced mouse colitis; type: in vivo; settings: KRN 7000 100 μg/kg i.p. days 1, 5, 9, IL-12 1 μg/mouse i.p. days 1, 3, 5, 7, 9
Procedure: Ten animals per group of CDF1 mice (6 weeks of age, females) (Japan SLC Inc.) were used for the following experiment. Day 0 was defined as the day when a 4% DSS solution (4% (w/v) dextran sodium sulfate (DSS) dissolved in water) was first provided as drinking water. The animals were divided into 3 groups, i.e., a group to which 100 μg/kg of KRN 7000 were intraperitoneally administered on days 1, 5, and 9, a group to which 1 μg/mouse of IL-12 was intraperitoneally administered on days 1, 3, 5, 7 and 9, and an untreated (control) group. Body weight was measured and survival or death of the animals were observed daily. Changes in body weight and survival rate are shown in FIG. 5A and 5B, respectively.

[3] = test system: spleen cells of RAG-1KO/Vα14tg/Vβ8.2tg mice (NKT cells); test: Stimulation of NKT cell proliferation, [3H]thymidine incorporation in spleen cells; type: cell-based, mouse; settings: 2 days incubation
Procedure: Stimulation of NKT cell proliferation by compounds having an α-glycosylceramide structure was studied using spleen cells of RAG-1KO/Vα14tg/Vβ8.2tg mice shown in Pharmacological Test Example 1.
Spleen cells were prepared from the spleen of RAG-1KO/Vα14tg/Vβ8.2tg mice by conventional methods. These spleen cells were suspended at 2×10^6 cells/ml in an RPMI 1640 medium supplemented with 10% FCS, and 100 μl each of the suspension were plated into wells of 96-well round-bottomed plates. Ten different kinds of compounds having an α-glycosylceramide structure shown in FIG. 12 were added to the wells of the plates at a final concentration of 1, 10 or 100 ng/ml, and the plates were incubated for 2 days. Sixteen hours after the addition of [^3H] thymidine (0.5 μCi/well), the cells were harvested. The amount of [^3H] thymidine incorporated into the cells was measured by a liquid scintillation counter.

pregnant C57BL/6 mice = test: Induction of abortion in pregnant C57BL/6 mice; type: in vivo, mouse
Procedure: (§1) C57BL/6 mice (Japan SLC) were used for the following experiment. The day when a vaginal plug was observed was defined as day 0. Pregnant mice were divided into 2 groups (6 mice per group), i.e., one group to which 150 μg/kg of KRN 7000 were intravenously administered on days 7, 8 and 9, and another to which PBS (phosphate-buffered saline) was administered in the same way. On day 12, the uterus was removed to observe the state of the embryo.

[4] = test system: Vα14+ NKT-deficient (Jα281KO) mice; test: Induction of abortion in Vα14+ NKT-deficient (Jα281KO) mice; type: in vivo, mouse; settings: same amount, same manner, PBS group 5.0%
Procedure: as §1
When the same amount of KRN 7000 was administered to Vα14^+ NKT-deficient (Jα281KO) mice (Kawano, T. et al., Science, 278, 1626-1629 (1997)) in the same manner, the abortion rate was 5.3%, which was equivalent to that for the PBS-administered group (5.0%). The Vα14^+ NKT-deficient mice are available from Masaru Taniguchi, School of Medicine, Chiba University.

[5] = Acute toxicity test by a single administration; type: in vivo; settings: mouse, in vivo, 10 mg/kg; intravenous, single administration, mice
Description: (§2) The compound of Example 1 was intravenously administered to mice.

mice = test: Acute toxicity test by a single administration; type: in vivo; settings: intravenous, 10 mg/kg
Description: as §2

## CCCCCCCCCCCCCCCCCCCCCCCCCC(=O)N[C@@H](CO[C@H]1O[C@H](CO)[C@H](O)[C@H](O)[C@H]1O)[C@H](O)[C@H](O)CCCCCCCCCCCCCC [KRN 7000, (2S,3S,4R)-1-(α-D-galactopyranosyloxy)-2-hexacosanoylamino-3,4-octadecanediol]
[1]
  cytotoxic activity against YAC-1 cells of spleen cells vs vehicle-administered mice: significantly higher
MRL lpr/lpr mice; FIG. 3A
  swelling in the axillary lymph nodes with aging: clearly suppressed
MRL lpr/lpr mice; FIG. 3B
  swelling in the inguinal lymph nodes with aging: clearly suppressed
[2]; FIG. 5A
  time of weight loss as compared with the control group: at a later period
[2]; FIG. 5B
  survival period as compared with the control group: significantly longer
[3]; 1 ng/ml, vehicle 2090
  [3H] Thymidine incorporation (cpm): 40064 cpm
[3]; 10 ng/ml, vehicle 2056
  [3H] Thymidine incorporation (cpm): 74669 cpm
[3]; 100 ng/ml, vehicle 2014
  [3H] Thymidine incorporation (cpm): 102543 cpm
Pregnant C57BL/6 mice; 150 μg/kg i.v. on days 7, 8 and 9, uterus on day 12, of the total of 36 embryos
  embryos dead and resorbed: 12
Pregnant C57BL/6 mice; 150 μg/kg i.v. on days 7, 8 and 9, PBS group 5.6%
  abortion rate: 33%
[4]
  abortion rate: 5.3%
[5]
  LD50: > 10 mg/kg
mice
  toxicity symptoms: no particular symptom
